Assay results from patent publication US20250197799A1, “CELLS DERIVED FROM POLYPEDILUM VANDERPLANKI AND ODOR SENSOR EQUIPPED THEREWITH” (University of Maryland, College Park, priority 2022, published 2025).

What was measured:
Orco-Or47a = molecular target: T1, Orco-Or47a (Drosophila melanogaster, UniProt P81921+Q9VNB5); assay: Response of BAM-immobilized Orco-Or47a stable expression cell line; type: cell-based; set-up: remnant residues; expressed in transfected cells; host or cells: Pv11 cells (Polypedilum vanderplanki), CRIS-PITCh knock-in at the Pv.00443 locus downstream of the 121 promoter, Zeocin selection and single-cell sorting; details: Pv11-GCaMP6f-Orco-Or47a stable expression cell line immobilized with BAM
T1 sequence (Q9VNB5 1-486): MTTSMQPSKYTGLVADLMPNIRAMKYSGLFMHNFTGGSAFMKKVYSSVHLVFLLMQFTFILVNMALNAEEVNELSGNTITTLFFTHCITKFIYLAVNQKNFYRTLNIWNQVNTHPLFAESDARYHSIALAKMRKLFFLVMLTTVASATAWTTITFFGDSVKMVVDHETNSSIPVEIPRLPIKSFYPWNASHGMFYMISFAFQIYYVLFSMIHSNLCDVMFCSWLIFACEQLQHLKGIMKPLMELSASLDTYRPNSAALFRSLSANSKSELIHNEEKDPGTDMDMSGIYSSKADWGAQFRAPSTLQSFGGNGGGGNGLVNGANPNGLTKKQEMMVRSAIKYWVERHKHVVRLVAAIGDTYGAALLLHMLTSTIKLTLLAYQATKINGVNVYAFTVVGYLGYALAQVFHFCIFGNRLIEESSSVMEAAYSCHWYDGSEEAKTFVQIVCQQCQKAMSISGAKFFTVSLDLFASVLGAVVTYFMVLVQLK
T1 sequence (P81921 1-385): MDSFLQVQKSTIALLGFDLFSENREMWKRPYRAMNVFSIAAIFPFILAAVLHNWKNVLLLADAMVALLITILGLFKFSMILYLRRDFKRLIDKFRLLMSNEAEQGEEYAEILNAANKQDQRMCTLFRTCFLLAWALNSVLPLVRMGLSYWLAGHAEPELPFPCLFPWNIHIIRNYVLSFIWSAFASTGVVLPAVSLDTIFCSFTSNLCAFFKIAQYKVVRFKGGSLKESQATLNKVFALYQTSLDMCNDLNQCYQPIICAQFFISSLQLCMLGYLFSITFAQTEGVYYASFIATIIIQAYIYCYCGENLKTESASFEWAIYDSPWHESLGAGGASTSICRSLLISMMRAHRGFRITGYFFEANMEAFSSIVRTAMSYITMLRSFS
Source text: 8.1 Pv11 cell immobilization. A cell membrane modifier (BAM: Biocompatible Anchor for cell Membrane) was used to fix the stable expression cell line obtained above. BAM consists of a hydrophilic PEG chain, an NHS group, and a hydrophobic oleyl group; by bringing BAM into contact with a collagen-coated dish, the NHS group binds to collagen, and the oleyl group interacts with the cell membrane through hydrophobic interactions, allowing cells to adhere. BAM (SUNBRIGHT OE-040CS, Yuka Sangyo Co., Ltd.) was dissolved in DMSO (Fujifilm Wako Pure Chemical Industries) to a concentration of 10 mM. The 10 mM BAM solution was adjusted to DPBS(-) (Thermo Fisher) to a final concentration of 100 μM, 100 μl was dropped onto a collagen 1-coated 48-well microplate (IWAKI) and incubated at 37° C. for 1 hour. The BAM solution was removed, washed once with DPBS(-) (Thermo Fisher) and five times with MilliQ, and allowed to stand still to evaporate water droplets. The Pv11 cell suspension was centrifuged at 700 g for 3 minutes, the supernatant was removed, the cell pellet was suspended in DPBS(-) (Thermo Fisher) and dropped onto a BAM-coated dish. […]
8.2 Functional confirmation of exogenous membrane proteins in fixed cells. […] Each substance was reacted with each cell in the same manner as in 3.2 above, and the fluorescence intensity was measured. […]

Orco and Or47a = molecular target: T2, Orco and Or47a (Drosophila melanogaster, UniProt P81921+Q9VNB5); assay: Fluorescence on stimulation of Pv11 transient expression strain (GCaMP6f, Orco, Or47a); type: cell-based; details: fluorescence microscope, DMSO negative control
T2 construct: expressed in transfected cells; host or cells: Pv11 cells (Polypedilum vanderplanki)
T2 sequence (Q9VNB5 1-486): T1 sequence (Q9VNB5 1-486)
T2 sequence (P81921 1-385): T1 sequence (P81921 1-385)
Source text: 1. Transient expression strain preparation. GCaMP6f cDNA was amplified by PCR in a conventional manner, and a pPv121-GcaMP6f vector was produced by inserting the amplified DNA sequence (SEQ ID NO: 2) encoding GcaMP6f downstream of a 121 promoter of a pPv121-MCS vector (Tokumoto et. Al., doi: https://doi. Org/10.1101/2020.05.29.123570 “Development of a Tet-On inducible expression system for the anhydrobiotic cell line, Pv11”). Similarly, the cDNA of Orco derived from Drosophila melanogaster was amplified by PCR by a conventional method, and a pPv121-Orco vector was generated by inserting the amplified Orco-encoding DNA sequence (SEQ ID NO:3) downstream of the 121 promoter of the pPv121-MCS vector. […]
The resulting pPv121-GcaMP6f vector, pPv121-Orco vector, and pPv121-Or47a vector were simultaneously transfected to Pv11 cells (see Miyata Y., et. Al, Scientific Reports, 9 (1), 7004. (2019)), and a Pv11 transient expression strain was produced that transiently expressed the GaMP6f, Orco, and Or47a proteins. If the membrane proteins Orco and Or47a were expressed and GcaMP6f was expressed in the cytoplasm, then by stimulating Pv11 transient expression strains with Orco or Or47a agonists or ligands, calcium ion influxed into the cells, and the fluorescence of GcaMP6f was observed. […]

| Compound | response (fluorescence intensity) of immobilized cells (Orco-Or47a) | fluorescence of GCaMP6f on stimulation (Orco and Or47a) |
| --- | --- | --- |
| CCc1ccc(NC(=O)CSc2nnc(-c3cccnc3)n2CC)cc1 [VUAA1, N-(4-ethylphenyl)-2-{[4-ethyl-5-(pyridin-3-yl)-4H-1,2,4-triazol-3-yl]sulfanyl}acetamide] | responded | fluorescence was observed |
| CCCCCOC(C)=O [pentyl acetate] | responded | fluorescence was observed |
